≈ marks a conversion by molar mass, not a printed value.

As usually defined, the MIC is the lowest concentration that inhibits growth of the organism. A higher MIC goes with a less susceptible organism.

What all share (assay): minimal inhibitory concentration, agar dilution method (in vitro)
What all share (format): cell-based
Background: Agar dilution tests growth on a series of plates holding different concentrations.

In one experiment the test system is Escherichia coli NIHJ. The text has this: (§1) When determined according to the agar dilution method, the penicillins [I] afford the minimal inhibitory concentrations as shown in the following Table 1: […]
The next experiment relates to Proteus miravilis 2425.
Description: as §1

The subject of experiment [1] is Pseudomonas aeruginosa 104.
Description: as §1

Experiment [2] relates to Staphylococcus aureus 209P.
Description: as §1

The test system of experiment [3] is Klebsiella pneumoniae 602.
Description: as §1

Take `CN(C)c1ccc2ncc(C(=O)NC(C(=O)N[C@@H]3C(=O)N4[C@@H]3SC(C)(C)[C@@H]4C(=O)O)c3ccccc3)c(O)c2n1` (stereo partly drawn) [Example 12]: the MIC in the experiment with Escherichia coli NIHJ was 6.25 µg/mL (≈ 11.1 µM); in the experiment with Proteus miravilis 2425 it was 3.13 µg/mL (≈ 5.54 µM); in experiment [1], 3.13 µg/mL (≈ 5.54 µM); in experiment [2] it was 0.1 µg/mL (≈ 0.177 µM).

For `COc1nc(OC)c2c(O)c(C(=O)NC(C(=O)N[C@@H]3C(=O)N4[C@@H]3SC(C)(C)[C@@H]4C(=O)O)c3ccccc3)cnc2n1` (stereo partly drawn) [Example 26], the MIC was determined as 3.13 µg/mL (≈ 5.37 µM) in the experiment on Escherichia coli NIHJ; 3.13 µg/mL (≈ 5.37 µM) in experiment [3]; 3.13 µg/mL (≈ 5.37 µM) against Proteus miravilis 2425; 3.13 µg/mL (≈ 5.37 µM) in experiment [1]; 0.78 µg/mL (≈ 1.34 µM) in experiment [2].

For `COc1nccc2ncc(C(=O)NC(C(=O)NC3C(=O)N4C3SC(C)(C)C4C(=O)O)c3ccccc3)c(O)c12` (stereo not drawn) [Example 44], the minimum inhibitory concentration (MIC) is 12.5 µg/mL (≈ 22.7 µM) against Escherichia coli NIHJ; 12.5 µg/mL (≈ 22.7 µM) in experiment [3]; 6.25 µg/mL (≈ 11.3 µM) in the experiment with Proteus miravilis 2425; 12.5 µg/mL (≈ 22.7 µM) in experiment [1]; 0.78 µg/mL (≈ 1.41 µM) in experiment [2].

For the compound `CC1(C)SC2C(NC(=O)C(NC(=O)c3cnc4cncnc4c3O)c3cccs3)C(=O)N2C1C(=O)O` (stereo not drawn) [Example 58], the MIC worked out at 1.56 µg/mL (≈ 2.95 µM) against Escherichia coli NIHJ; 1.56 µg/mL (≈ 2.95 µM) in experiment [3]; 3.13 µg/mL (≈ 5.92 µM) with Proteus miravilis 2425; 3.13 µg/mL (≈ 5.92 µM) in experiment [1]; 0.78 µg/mL (≈ 1.48 µM) in experiment [2].

With `CCOC(=O)Oc1c(C(=O)NC(C(=O)N[C@@H]2C(=O)N3[C@@H]2SC(C)(C)[C@@H]3C(=O)O)c2ccccc2)cnc2cc(OC)ccc12` (stereo partly drawn) [Example 17], the MIC worked out at 3.13 µg/mL (≈ 5.03 µM) against Escherichia coli NIHJ; 0.39 µg/mL (≈ 0.626 µM) in experiment [3]; 1.56 µg/mL (≈ 2.51 µM) in the experiment on Proteus miravilis 2425; 3.13 µg/mL (≈ 5.03 µM) in experiment [1]; 0.2 µg/mL (≈ 0.321 µM) in experiment [2].

Take `COc1c(C(=O)NC(C(=O)N[C@@H]2C(=O)N3[C@@H]2SC(C)(C)[C@@H]3C(=O)O)c2ccccc2)cnc2cc3c(cc12)OCO3` (stereo partly drawn) [Example 10]: the MIC is 12.5 µg/mL (≈ 21.6 µM) against Escherichia coli NIHJ, 25 µg/mL (≈ 43.2 µM) in the experiment on Proteus miravilis 2425, 25 µg/mL (≈ 43.2 µM) in experiment [1] and 0.2 µg/mL (≈ 0.346 µM) in experiment [2].

With `CC1(C)SC2C(NC(=O)C(NC(=O)c3cnc4cnc(N)nc4c3O)c3ccccc3)C(=O)N2C1C(=O)O` (stereo not drawn) [Example 59], the MIC came out at 3.13 µg/mL (≈ 5.82 µM) in the experiment with Escherichia coli NIHJ; 1.56 µg/mL (≈ 2.9 µM) in experiment [3]; 3.13 µg/mL (≈ 5.82 µM) with Proteus miravilis 2425; 3.13 µg/mL (≈ 5.82 µM) in experiment [1]; 0.78 µg/mL (≈ 1.45 µM) in experiment [2].

Regarding `CC1(C)S[C@@H]2[C@H](NC(=O)[C@H](NC(=O)c3cnc4ccccc4c3O)c3ccccc3)C(=O)N2[C@H]1C(=O)O` [Example 3, D-(-)-α-(4-hydroxyquinoline-3-carbonamido)-benzylpenicillin], the MIC is 6.25 µg/mL (≈ 12 µM) in the experiment with Escherichia coli NIHJ; 1.56 µg/mL (≈ 3 µM) in experiment [3]; 3.13 µg/mL (≈ 6.01 µM) with Proteus miravilis 2425; 6.25 µg/mL (≈ 12 µM) in experiment [1]; 0.2 µg/mL (≈ 0.384 µM) in experiment [2].

On to `CCSc1c(C(=O)NC(C(=O)N[C@@H]2C(=O)N3[C@@H]2SC(C)(C)[C@@H]3C(=O)O)c2ccccc2)cnc2cc3c(cc12)OCO3` (stereo partly drawn) [Example 8], for which the MIC with Escherichia coli NIHJ amounted to 12.5 µg/mL (≈ 20.5 µM); in the experiment with Proteus miravilis 2425 it was 12.5 µg/mL (≈ 20.5 µM); in experiment [1], 25 µg/mL (≈ 41.1 µM); in experiment [2] it was 0.2 µg/mL (≈ 0.329 µM).

Turning to `CCOC(=O)Oc1c(C(=O)N[C@@H](C(=O)N[C@@H]2C(=O)N3[C@@H]2SC(C)(C)[C@@H]3C(=O)O)c2ccccc2)cnc2ccccc12` [Example 1, D-(-)-α-(4-ethoxycarbonyloxyquinoline-3-carbonamido)-benzylpenicillin], the MIC was determined as 6.25 µg/mL (≈ 10.5 µM) in the experiment on Escherichia coli NIHJ, 1.56 µg/mL (≈ 2.63 µM) in the experiment on Proteus miravilis 2425, 3.13 µg/mL (≈ 5.28 µM) in experiment [1] and 0.2 µg/mL (≈ 0.337 µM) in experiment [2].

On to `CC(C)(C)C(=O)Oc1c(C(=O)N[C@@H](C(=O)N[C@@H]2C(=O)N3[C@@H]2SC(C)(C)[C@@H]3C(=O)O)c2ccccc2)cnc2ccccc12` [Example 6, D-(-)-α-(4-pivaloyloxyquinoline-3-carbonamido)-benzylpenicillin], for which the MIC in the experiment with Escherichia coli NIHJ came out at 6.25 µg/mL (≈ 10.3 µM); against Proteus miravilis 2425, 1.56 µg/mL (≈ 2.58 µM); in experiment [1], 3.13 µg/mL (≈ 5.18 µM); in experiment [2] it was 0.1 µg/mL (≈ 0.165 µM).

For the compound `CCOc1c(C(=O)NC(C(=O)N[C@@H]2C(=O)N3[C@@H]2SC(C)(C)[C@@H]3C(=O)O)c2ccccc2)cnc2ccccc12` (stereo partly drawn) [Example 13], the MIC against Escherichia coli NIHJ was 12.5 µg/mL (≈ 22.8 µM); with Proteus miravilis 2425 it was 25 µg/mL (≈ 45.6 µM); in experiment [1] it was 50 µg/mL (≈ 91.1 µM); in experiment [2], 0.2 µg/mL (≈ 0.365 µM).

Turning to `CC1(C)S[C@@H]2[C@H](NC(=O)C(NC(=O)c3cnc4cc(C(F)(F)F)ccc4c3O)c3cccs3)C(=O)N2[C@H]1C(=O)O` (stereo partly drawn) [Example 25], the MIC with Escherichia coli NIHJ turned out to be 12.5 µg/mL (≈ 21 µM); with Proteus miravilis 2425, 3.16 µg/mL (≈ 5.31 µM); in experiment [1], 6.25 µg/mL (≈ 10.5 µM); in experiment [2], 0.39 µg/mL (≈ 0.656 µM).

As to `CCOC(=O)Oc1c(C(=O)N[C@@H](C(=O)N[C@@H]2C(=O)N3[C@@H]2SC(C)(C)[C@@H]3C(=O)O)c2ccccc2)cnc2nc(C)ccc12` [Example 5, D-(-)-α-(7-methyl-4-ethoxycarbonyloxy-1,8-naphthyridine-3-carbonamido)-benzylpenicillin], the MIC stood at 12.5 µg/mL (≈ 20.6 µM) with Escherichia coli NIHJ, 6.25 µg/mL (≈ 10.3 µM) against Proteus miravilis 2425, 12.5 µg/mL (≈ 20.6 µM) in experiment [1] and 0.78 µg/mL (≈ 1.28 µM) in experiment [2].

`CSc1ccc2ncc(C(=O)NC(C(=O)N[C@@H]3C(=O)N4[C@@H]3SC(C)(C)[C@@H]4C(=O)O)c3ccccc3)c(O)c2n1` (stereo partly drawn) [Example 11]: the MIC against Escherichia coli NIHJ came out at 6.25 µg/mL (≈ 11 µM); against Proteus miravilis 2425, 3.13 µg/mL (≈ 5.51 µM); in experiment [1], 3.13 µg/mL (≈ 5.51 µM); in experiment [2], 0.1 µg/mL (≈ 0.176 µM).

Source of the values: patent publication US3951955A, “Penicillins substituted with heterocyclic groups” (Sumitomo Chemical Company, Limited, priority 1970, dated 1976).
